Results from patent US20260284014A1, “3,5-DIAMINOTRIAZOLE DERIVATIVES AND USES THEREOF FOR TREATING OCULAR DISEASES” (CENTRE NATIONAL DE LA RECHERCHE SCIENTIFIQUE, priority 2023, published 2026).

Experiments:
Format in all cases: cell-based
ARPE-19 cells = test: Cell viability (XTT assay); settings: Homo sapiens, 48 h, read-out: A. Safety IC50 on ARPE-19 cells
Method: ARPE-19 cells were incubated in a 96-well plate with different effectors for 48 hours. Fifty microliters of sodium 3′-[1-phenylaminocarbonyl)-3,4-tetrazolium]-bis(4-methoxy-6-nitro) benzene sulfonic acid hydrate (XTT) reagent was added to each well. The test is based on the cleavage of the yellow tetrazolium salt XTT to form an orange formazan dye by metabolically active cells. This bio-reduction occurs in viable cells only and is associated with NAD(P)H production through glycolysis. Therefore, the amount of formazan dye measured at 490 nm, correlates directly with the number of metabolically active cells reflecting cell proliferation, viability, and cytotoxicity. Each assay was performed in quadruplicate.
(§1) All compounds were evaluated in different experiments. Results are represented as the mean of three independent experiments. A. ARPE-19 cells were treated with dose response of compound for 48 h. Values are reported as IC50 measured with the XTT assay. B and C. ARPE-19 cells were treated with 5 μM (B) or 1 μM (C) compound then with 200 μM H2O2 for 2 h. ROS were analyzed by cytometry. […] As illustrated in FIG. 1A. D. ARPE-19 cells were treated with 2.5 μM compound for 48 h and the level of CXCL1 mRNA was evaluated by qPCR. […] As illustrated in FIG. 1B. E. TIME cells were pre-treated with 2.5 μM compound for 1 h then stimulated with 100 ng/ml CXCL8 for 15 min p-ERK levels were analyzed by immunoblotting. HSP90 served as loading control. […] As illustrated in FIG. 1C.

ROS = ROS labeling by cytometry after H2O2; settings: Homo sapiens, ARPE-19; for inhibition at 1 µM: 1 μM compound then 200 μM H2O2 for 2 h, read-out: C. ROS inhibition 1 μM - ARPE-19 cells; for inhibition at 5 µM: 5 μM compound then 200 μM H2O2 for 2 h, read-out: B. ROS inhibition 5 μM - ARPE-19 cells
Method: ARPE-19 cells were treated with MCK349 30 minutes then with 200 μM H2O2 for 2 h. 10 μM DCF-DA (2′,7′-Dichlorofluorescein diacetate) were added on cell media for 30 min. Cells were rinsed then detached (trypsin) and resuspended in PBS 0.5% BSA and 2 mM EDTA. The cells are analyzed by cytometry (ROS labeled with DCFDA-FITC).
as §1

ERK activation (p-ERK) = test: p-ERK immunoblotting after CXCL8 stimulation; settings: 2.5 μM compound 1 h then 100 ng/ml CXCL8 for 15 min; read-out: E. p-ERK inhibition - TIME
Method: Cells were lysed in buffer containing 3% SDS, 10% glycerol and 0.825 mM Na2HPO4. 30 to 50 μg of proteins separated on 10% SDS-PAGE, transferred onto a PVDF membrane and then exposed to the appropriate antibodies. Proteins were visualized with the ECL system using horseradish peroxidase-conjugated anti-rabbit or anti-mouse antibodies.
as §1

| Structure (SMILES) | IC50 (ARPE-19 cells) [µM] | inhibition at 1 µM (ROS) [%] | inhibition at 5 µM (ROS) [%] | inhibition at 2.5 µM (ERK activation (p-ERK)) [%] |
| --- | --- | --- | --- | --- |
| Nc1nc(Nc2ccccc2)n(Cc2ccccc2)n1 [MCK248, 1-benzyl-N^5-phenyl-1H-1,2,4-triazole-3,5-diamine] | > 25 | < 50 | ≥ 50 | < 50 |
| Nc1nc(Nc2ccccc2)nn1Cc1ccccc1 [MCK249, 1-benzyl-N^3-phenyl-1H-1,2,4-triazole-3,5-diamine] | > 25 | < 50 | ≥ 50 | < 50 |
| Cc1ccccc1Cn1nc(Nc2ccccc2)nc1N [MCK250, 1-(2-methylbenzyl)-N^3-phenyl-1H-1,2,4-triazole-3,5-diamine] | > 25 | ≥ 50 | ≥ 50 | < 50 |
| Nc1nc(Nc2ccccn2)nn1Cc1ccccc1 [MCK253, 1-benzyl-N^3-(pyridin-2-yl)-1H-1,2,4-triazole-3,5-diamine] | > 25 | < 50 | < 50 | < 50 |
| Nc1nc(Nc2cccnc2)nn1Cc1ccccc1 [MCK254, 1-benzyl-N^3-(pyridin-3-yl)-1H-1,2,4-triazole-3,5-diamine] | > 25 | < 50 | < 50 | < 50 |
| Nc1nc(Nc2ccccc2)n(Cc2c(F)cccc2F)n1 [MCK257, 1-(2,6-difluorobenzyl)-N^5-phenyl-1H-1,2,4-triazole-3,5-diamine] | > 25 | ≥ 50 | ≥ 50 | ≥ 50 |
| Nc1nc(Nc2ccccn2)nn1Cc1c(F)cccc1F [MCK259, 1-(2,6-difluorobenzyl)-N^3-(pyridin-2-yl)-1H-1,2,4-triazole-3,5-diamine] | > 25 | < 50 | < 50 | ≥ 50 |
| COc1cccc(Cn2nc(N)nc2Nc2ccccc2)c1 [MCK260, 1-(3-methoxybenzyl)-N^5-phenyl-1H-1,2,4-triazole-3,5-diamine] | > 25 | ≥ 50 | ≥ 50 | ≥ 50 |
| COc1cccc(Cn2nc(Nc3ccccc3)nc2N)c1 [MCK261, 1-(3-methoxybenzyl)-N^3-phenyl-1H-1,2,4-triazole-3,5-diamine] | > 25 | < 50 | ≥ 50 | ≥ 50 |
| CC(C)c1ccc(Cn2nc(N)nc2Nc2ccccc2)cc1 [MCK262, 1-(4-isopropylbenzyl)-N^5-phenyl-1H-1,2,4-triazole-3,5-diamine] | > 25 | ≥ 50 | ≥ 50 | ≥ 50 |
| Nc1nc(Nc2ccccc2)nn1Cc1cccc(Br)c1 [MCK264, 1-(3-bromobenzyl)-N^3-phenyl-1H-1,2,4-triazole-3,5-diamine] | > 25 | ≥ 50 | ≥ 50 | ≥ 50 |
| Nc1nc(Nc2ccccc2)nn1Cc1c(Cl)cccc1Cl [MCK268, 1-(2,6-dichlorobenzyl)-N^3-phenyl-1H-1,2,4-triazole-3,5-diamine] | > 25 | < 50 | ≥ 50 | ≥ 50 |
| Cc1ccccc1Cn1nc(Nc2ccccn2)nc1N [MCK269, 1-(2-methylbenzyl)-N^3-(pyridin-2-yl)-1H-1,2,4-triazole-3,5-diamine] | > 25 | ≥ 50 | ≥ 50 | ≥ 50 |
| Cc1ccc(Cn2nc(Nc3ccccc3)nc2N)cc1 [MCK271, 1-(4-methylbenzyl)-N^3-phenyl-1H-1,2,4-triazole-3,5-diamine] | > 25 | ≥ 50 | ≥ 50 | ≥ 50 |
| Nc1nc(Nc2ccccc2)nn1Cc1ccc(Cl)cc1 [MCK272, 1-(4-chlorobenzyl)-N^3-phenyl-1H-1,2,4-triazole-3,5-diamine] | > 25 | < 50 | ≥ 50 | ≥ 50 |
| Nc1nc(Nc2ccccc2)nn1Cc1cccc(C(F)(F)F)c1 [MCK273, N^3-phenyl-1-(3-(trifluoromethyl)benzyl)-1H-1,2,4-triazole-3,5-diamine] | > 25 | ≥ 50 | ≥ 50 | ≥ 50 |
| Nc1nc(Nc2ccccc2)nn1Cc1cc(F)cc(F)c1 [MCK274, 1-(3,5-difluorobenzyl)-N^3-phenyl-1H-1,2,4-triazole-3,5-diamine] | > 25 | ≥ 50 | ≥ 50 | < 50 |
| Nc1nc(Nc2ccccc2)nn1Cc1cccc([N+](=O)[O-])c1 [MCK275] | > 25 | ≥ 50 | ≥ 50 | < 50 |
| Nc1nc(Nc2ccccn2)nn1Cc1cccc(Br)c1 [MCK276, 1-(3-bromobenzyl)-N^3-(pyridin-2-yl)-1H-1,2,4-triazole-3,5-diamine] | > 25 | < 50 | < 50 | ≥ 50 |
| Nc1nc(Nc2ccccn2)nn1Cc1c(Cl)cccc1Cl [MCK278, 1-(2,6-dichlorobenzyl)-N^3-(pyridin-2-yl)-1H-1,2,4-triazole-3,5-diamine] | > 25 | < 50 | < 50 | ≥ 50 |
| Cc1ccc(Cn2nc(Nc3ccccn3)nc2N)cc1 [MCK279, 1-(4-methylbenzyl)-N^3-(pyridin-2-yl)-1H-1,2,4-triazole-3,5-diamine] | > 25 | < 50 | < 50 | ≥ 50 |
| Nc1nc(Nc2ccccn2)nn1Cc1ccc(Cl)cc1 [MCK280, 1-(4-chlorobenzyl)-N^3-(pyridin-2-yl)-1H-1,2,4-triazole-3,5-diamine] | > 25 | < 50 | < 50 | ≥ 50 |
| N#Cc1ccc(Cn2nc(Nc3ccccn3)nc2N)cc1 [MCK281, 4-((5-amino-3-(pyridin-2-ylamino)-1H-1,2,4-triazol-1-yl)methyl)benzonitrile] | > 25 | < 50 | < 50 | ≥ 50 |
| Nc1nc(Nc2ccccn2)nn1Cc1cccc(C(F)(F)F)c1 [MCK282, N^3-(pyridin-2-yl)-1-(3-(trifluoromethyl)benzyl)-1H-1,2,4-triazole-3,5-diamine] | > 25 | < 50 | < 50 | ≥ 50 |
| Nc1nc(Nc2ccccn2)nn1Cc1cc(F)cc(F)c1 [MCK283, 1-(3,5-difluorobenzyl)-N^3-(pyridin-2-yl)-1H-1,2,4-triazole-3,5-diamine] | > 25 | < 50 | < 50 | ≥ 50 |
| Nc1nc(Nc2ccccn2)nn1Cc1ccc(F)cc1F [MCK284, 1-(2,4-difluorobenzyl)-N^3-(pyridin-2-yl)-1H-1,2,4-triazole-3,5-diamine] | > 25 | < 50 | < 50 | ≥ 50 |
| Nc1nc(Nc2ccccc2)nn1Cc1ccc([N+](=O)[O-])cc1 [MCK288] | > 25 | ≥ 50 | ≥ 50 | < 50 |
| Nc1nc(Nc2ccccn2)nn1Cc1ccccc1[N+](=O)[O-] [MCK289, 1-(2-nitrobenzyl)-N^3-(pyridin-2-yl)-1H-1,2,4-triazole-3,5-diamine] | > 25 | ≥ 50 | ≥ 50 | < 50 |
| Nc1nc(Nc2ccccn2)nn1Cc1ccc([N+](=O)[O-])cc1 [MCK290, 1-(4-nitrobenzyl)-N^3-(pyridin-2-yl)-1H-1,2,4-triazole-3,5-diamine] | > 25 | ≥ 50 | ≥ 50 | ≥ 50 |
| Nc1nc(Nc2ccccn2)nn1Cc1cccc([N+](=O)[O-])c1 [MCK292, 1-(3-nitrobenzyl)-N^3-(pyridin-2-yl)-1H-1,2,4-triazole-3,5-diamine] | > 25 | < 50 | < 50 | ≥ 50 |
